Results on 23 molecules are retold here after US8742106B2 (Novartis AG, priority 2009, dated 2014).

One test has as its target human orexin 1 receptors (Homo sapiens (Human), UniProt O43613). Kind of test: Calcium Accumulation in Cells (FLIPR), antagonism of orexin A. In kind it is cell-based. The settings on record: for inhibition at 10 µM: measured at a concentration of 10 μM of compound, read-out: FLIPR hOx1R % inhibition value; for Ki: antagonism of orexin A, Cheng-Prusoff corrected, read-out: FLIPR hOx1R Ki. As for the experimental part:
(§1) Calcium Accumulation in Cells (FLIPR):
Cells expressing human orexin 1 or human orexin 2 receptors, were seeded at 8,000 cells/well in 384 well black-walled clear bottom, poly-D-lysine coated plates. After 24 h, the medium was removed and cells were washed once with phosphate buffered saline and serum-deprived overnight in assay buffer (130 mM NaCl, 5.4 mM KCl, 1.8 mM CaCl2, 0.8 mM MgSO4, 0.9 mM NaH2PO4, 25 mM glucose, 20 mM HEPES, pH 7.4) containing bovine serum albumin (1% w/v).
On the day of the experiment, the cells seeded in black plates were treated with assay buffer containing the Ca^2+ sensitive fluorescent dye Fluo4-AM (2 μM), and probenecid (0.1 mM). After 1 h plates were washed twice with, and resuspended in, assay buffer containing probenecid (0.1 mM) using a multi plate washer. The plates were placed into a FLIPR II (Fluorometric Imaging Plate Reader, Molecular Devices, Sunnyvale, Calif., USA) and baseline fluorescence (fluorescence light units, FLU) was measured (5 measurements, 2 S each; laser excitation 488 nm at 0.6-1 W, CCD camera exposure 0.4 s) before addition of buffer alone (basal) or containing test compounds (either compound of formula (I) or (I′) alone, agonist alone or agonist in the presence of various concentrations of compounds of formula (I) or (I′)). Fluorescence measurements were then continued every 1 S for 120 S followed by every 4 S for 240 S.
(§2) The measurements were typically made in two sequences:
(§3) In the first round, compounds of formula (I) or (I′) were tested alone, to detect possible agonist activity. Compounds of formula I or I′ were tested usually in a concentration range from 10^−9 M to 10^−5 M.
(§4) In the second round, performed one hour later (to allow for equilibration), Orexin A was tested either in the absence (calibration curves, Orexin A agonist controls) or in the presence of compounds of formula (I) or (I′) to determine antagonism.

For a further test, the target named is human orexin 2 receptors (Homo sapiens (Human), UniProt O43614). The test is described as above. In kind it is cell-based. The settings on record: for inhibition at 10 µM: measured at a concentration of 10 μM of compound, read-out: FLIPR hOx2R % inhibition value; for Ki: antagonism of orexin A, Cheng-Prusoff corrected, read-out: FLIPR hOx2R Ki. As for the experimental part: as §1
Cells expressing human orexin 1 or human orexin 2 receptors, were seeded at 8,000 cells/well in 384 well black-walled clear bottom, poly-D-lysine coated plates.
On the day of the experiment, the cells seeded in black plates were treated with assay buffer containing the Ca^2+ sensitive fluorescent dye Fluo4-AM (2 μM), and probenecid (0.1 mM). After 1 h plates were washed twice with, and resuspended in, assay buffer containing probenecid (0.1 mM) using a multi plate washer. […] Fluorescence measurements were then continued every 1 S for 120 S followed by every 4 S for 240 S.
as §2, §3, §4

Sequence of human orexin 1 receptors (O43613 whole entry): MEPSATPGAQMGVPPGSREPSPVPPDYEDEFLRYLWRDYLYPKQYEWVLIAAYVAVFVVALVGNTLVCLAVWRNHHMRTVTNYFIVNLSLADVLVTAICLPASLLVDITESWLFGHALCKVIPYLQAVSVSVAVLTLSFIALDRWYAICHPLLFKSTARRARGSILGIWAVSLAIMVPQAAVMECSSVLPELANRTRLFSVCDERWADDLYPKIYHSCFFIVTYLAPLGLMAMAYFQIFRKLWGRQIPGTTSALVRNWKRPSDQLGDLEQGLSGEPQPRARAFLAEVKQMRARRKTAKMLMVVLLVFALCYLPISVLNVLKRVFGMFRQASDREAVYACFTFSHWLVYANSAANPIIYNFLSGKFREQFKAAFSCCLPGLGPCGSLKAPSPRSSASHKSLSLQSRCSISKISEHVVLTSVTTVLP
Sequence of human orexin 2 receptors (O43614 whole entry): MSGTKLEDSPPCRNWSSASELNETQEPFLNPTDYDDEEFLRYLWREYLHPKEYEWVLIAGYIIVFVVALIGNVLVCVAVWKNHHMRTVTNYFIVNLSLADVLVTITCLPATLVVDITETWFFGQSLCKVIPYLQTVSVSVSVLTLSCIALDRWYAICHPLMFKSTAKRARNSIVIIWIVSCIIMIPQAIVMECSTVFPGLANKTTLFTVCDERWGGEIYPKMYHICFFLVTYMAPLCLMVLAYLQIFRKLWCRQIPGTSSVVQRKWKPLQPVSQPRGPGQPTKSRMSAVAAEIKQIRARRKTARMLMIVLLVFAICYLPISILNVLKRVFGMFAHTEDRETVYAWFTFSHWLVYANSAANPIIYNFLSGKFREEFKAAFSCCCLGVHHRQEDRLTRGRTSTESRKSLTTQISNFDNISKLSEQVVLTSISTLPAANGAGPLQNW

As to `CC(Oc1cc(C(F)(F)F)c2c(-c3ccccc3)nn(C)c2n1)C(=O)N[C@@H](C)c1ccccc1` (single isomer, unassigned) [Example 1.74], the inhibition at 10 µM at human orexin 1 receptors and on human orexin 2 receptors was under 10% each time. For the molecule `COc1ccc2c(c1)CC[C@@H]2NC(=O)C(C)Oc1cc(C)c2c(C3CC3)nn(C)c2n1` (single isomer, unassigned) [Example 6.72, (S or R)-2-(3-cyclopropyl-1,4-dimethyl-1H-pyrazolo[3,4-b]pyridin-6-yloxy)-N-((S)-5-methoxy-2,3-dihydro-1H-inden-1-yl)propanamide], the inhibition at 10 µM at human orexin 1 receptors was found to be 46%; at human orexin 2 receptors, 48%. In the same order, the values of `COc1ccc([C@H](C)NC(=O)C(C)Oc2cc(C)c3c(C4CC4)nn(C)c3n2)cc1` (single isomer, unassigned) [Example 6.73, (S or R)-2-(3-cyclopropyl-1,4-dimethyl-1H-pyrazolo[3,4-b]pyridin-6-yloxy)-N-((S)-1-(4-methoxyphenyl)ethyl)propanamide] are 43% and 29%. On to `C[C@H](NC(=O)COc1cc(C(F)(F)F)c2c(-c3ccccc3)n[nH]c2n1)c1ccccc1` [Example 1.2, (S)-2-(3-phenyl-4-(trifluoromethyl)-1H-pyrazolo[3,4-b]pyridin-6-yloxy)-N-(1-phenylethyl)acetamide], for which the Ki on human orexin 1 receptors came to 200 nM; at human orexin 2 receptors, 43 nM.

Turning to `CCOc1ccccc1CNC(=O)COc1cc(C(F)(F)F)c2c(-c3ccccc3)nn(C)c2n1` [Example 1.7, N-(2-ethoxybenzyl)-2-(1-methyl-3-phenyl-4-(trifluoromethyl)-1H-pyrazolo[3,4-b]pyridin-6-yloxy)acetamide], the Ki at human orexin 1 receptors amounted to 1020 nM; on human orexin 2 receptors, 337 nM. For `Cn1nc(-c2ccccc2)c2c(C(F)(F)F)cc(OCC(=O)NCc3cccc(F)c3)nc21` [Example 1.8, N-(3-fluorobenzyl)-2-(1-methyl-3-phenyl-4-(trifluoromethyl)-1H-pyrazolo[3,4-b]pyridin-6-yloxy)acetamide], at human orexin 1 receptors, the inhibition at 10 µM came out at 39%. The Ki on human orexin 2 receptors came out at 1620 nM. On the same counts, the results for `Cn1nc(-c2ccccc2)c2c(C(F)(F)F)cc(OCC(=O)NC3CCCCC3)nc21` [Example 1.9, N-cyclohexyl-2-(1-methyl-3-phenyl-4-(trifluoromethyl)-1H-pyrazolo[3,4-b]pyridin-6-yloxy)acetamide] are 32% and 2500 nM.

Take `Cn1nc(-c2ccccc2)c2c(C(F)(F)F)cc(OCC(=O)NC3CCCC3)nc21` [Example 1.10, N-cyclopentyl-2-(1-methyl-3-phenyl-4-(trirfluoromethyl)-1H-pyrazolo[3,4-b]pyridin-6-yloxy)acetamide]: the inhibition constant (Ki) on human orexin 1 receptors worked out at 650 nM; at human orexin 2 receptors, 324 nM. `Cn1nc(-c2ccccc2)c2c(C(F)(F)F)cc(OCC(=O)NCc3ccc(Cl)cc3)nc21` [Example 1.11, N-(4-chlorobenzyl)-2-(1-methyl-3-phenyl-4-(trifluoromethyl)-1H-pyrazolo[3,4-b]pyridin-6-yloxy)acetamide]: the Ki at human orexin 1 receptors worked out at 2010 nM; on human orexin 2 receptors, 251 nM.

Regarding `Cn1nc(-c2ccccc2)c2c(C(F)(F)F)cc(OCC(=O)NCc3ccccc3)nc21` [Example 1.12, N-benzyl-2-(1-methyl-3-phenyl-4-(trifluoromethyl)-1H-pyrazolo[3,4-b]pyridin-6-yloxy)acetamide], the Ki on human orexin 1 receptors is 2500 nM; on human orexin 2 receptors, 1380 nM. As for `Cc1cc(OCC(=O)NCc2ccccc2Cl)nc2c1c(-c1ccccc1)nn2C` [Example 1.14, N-(2-chlorobenzyl)-2-(1,4-dimethyl-3-phenyl-1H-pyrazolo[3,4-b]pyridin-6-yloxy)acetamide], at human orexin 1 receptors, the Ki came out at 422 nM. The inhibition at 10 µM on human orexin 2 receptors is 33%. Turning to `Cc1cc(OCC(=O)NCc2ccc3c(c2)OCO3)nc2c1c(-c1ccccc1)nn2C` [Example 1.15, N-(benzo[d][1,3]dioxol-5-ylmethyl)-2-(1,4-dimethyl-3-phenyl-1H-pyrazolo[3,4-b]pyridin-6-yloxy)acetamide], the inhibition at 10 µM at human orexin 1 receptors is 44%; on human orexin 2 receptors, 39%.

`C[C@H](NC(=O)COc1cc(C(F)(F)F)c2c(-c3ccccn3)nn(C)c2n1)c1ccccc1` [Example 1.21, (S)-2-(1-methyl-3-(pyridin-2-yl)-4-(trifiuoromethyl)-1H-pyrazolo[3,4-b]pyridin-6-yloxy)-N-(1-phenylethyl)acetamide]: the results for the inhibition at 10 µM at human orexin 1 receptors and at human orexin 2 receptors were 38% and 29%, respectively. `C[C@H](NC(=O)COc1cc(C(F)(F)F)c2c(-c3ccncc3)nn(C)c2n1)c1ccccc1` [Example 1.25, (S)-2-(1-methyl-3-(pyridin-4-yl)-4-(trifluoromethyl)-1H-pyrazolo[3,4-b]pyridin-6-yloxy)-N-(1-phenylethyl)acetamide]: the results for the inhibition at 10 µM on human orexin 1 receptors and on human orexin 2 receptors were 54% and 52%, respectively. On to `Cc1ccccc1-c1nn(C)c2nc(OCC(=O)N[C@@H](C)c3ccccc3)cc(C(F)(F)F)c12` [Example 1.26, (S)-2-(1-methyl-3-o-tolyl-4-(trifluoromethyl)-1H-pyrazolo[3,4-b]pyridin-6-yloxy)-N-(1-phenylethyl)acetamide], for which the Ki at human orexin 1 receptors turned out to be 218 nM; at human orexin 2 receptors it was 183 nM. With `C[C@@H](NC(=O)COc1cc(C(F)(F)F)c2c(-c3ccccc3)nn(C)c2n1)c1ccccc1` [Example 1.27, (R)-2-(1-methyl-3-phenyl-4-(trifluoromethyl)-1H-pyrazolo[3,4-b]pyridin-6-yloxy)-N-(1-phenylethyl)acetamide], the inhibition at 10 µM was 33% at human orexin 1 receptors and 35% on human orexin 2 receptors.

With `Cc1ccc(C(C)NC(=O)COc2cc(C(F)(F)F)c3c(-c4ccccc4)nn(C)c3n2)o1` (stereo not shown) [Example 1.28, 2-(1-methyl-3-phenyl-4-(trifluoromethyl)-1H-pyrazolo[3,4-b]pyridin-6-yloxy)-N-(1-(5-methylfuran-2-yl)ethyl)acetamide], the Ki at human orexin 1 receptors worked out at 941 nM; on human orexin 2 receptors, 411 nM. For `CC(NC(=O)COc1cc(C(F)(F)F)c2c(-c3ccccc3)nn(C)c2n1)c1ccccn1` (stereo not shown) [Example 1.29, 2-(1-methyl-3-phenyl-4-(trifluoromethyl)-1H-pyrazolo[3,4-b]pyridin-6-yloxy)-N-(1-(pyridin-2-yl)ethyl)acetamide], the Ki at human orexin 1 receptors is 2670 nM. The inhibition at 10 µM at human orexin 2 receptors is 44%. For `CC(NC(=O)COc1cc(C(F)(F)F)c2c(-c3ccccc3)nn(C)c2n1)c1cccnc1` (stereo not shown) [Example 1.30, 2-(1-methyl-3-phenyl-4-(trifluoromethyl)-1H-pyrazolo[3,4-b]pyridin-6-yloxy)-N-(1-(pyridin-3-yl)ethyl)acetamide], the Ki on human orexin 1 receptors was 970 nM; on human orexin 2 receptors it was 582 nM. For `CC(NC(=O)COc1cc(C(F)(F)F)c2c(-c3ccccc3)nn(C)c2n1)c1ccncc1` (stereo not shown) [Example 1.31, 2-(1-methyl-3-phenyl-4-(trifluoromethyl)-1H-pyrazolo[3,4-b]pyridin-6-yloxy)-N-(1-(pyridin-4-yl)ethyl)acetamide], the Ki at human orexin 1 receptors was found to be 2110 nM. On human orexin 2 receptors, the inhibition at 10 µM turned out to be 40%.

For `Cc1n[nH]c(C)c1[C@@H](C)NC(=O)COc1cc(C(F)(F)F)c2c(-c3ccccc3)nn(C)c2n1` [Example 1.62, (R)-N-(1-(3,5-dimethyl-1H-pyrazol-4-yl)ethyl)-2-(1-methyl-3-phenyl-4-(trifluoromethyl)-1H-pyrazolo[3,4-b]pyridin-6-yloxy)acetamide], on human orexin 2 receptors, the inhibition at 10 µM came to 36%.

For `COc1ccc([C@H](C)NC(=O)COc2cc(C)c3c(-c4cc(OC)cc(OC)c4)nn(C)c3n2)cc1` [Example 6.1, (S)-2-((3-(3,5-dimethoxyphenyl)-1,4-dimethyl-1H-pyrazolo[3,4-b]pyridin-6-yl)oxy)-N-(1-(4-methoxyphenyl)ethyl)acetamide], the Ki on human orexin 2 receptors was 185 nM. For `COc1ccc2c(c1)CC[C@H]2NC(=O)COc1cc(C)c2c(C3CC3)nn(C)c2n1` [Example 6.4, (R)-2-(3-cyclopropyl-1,4-dimethyl-1H-pyrazolo[3,4-b]pyridin-6-yloxy)-N-(5-methoxy-2,3-dihydro-1H-inden-1-yl)acetamide], at human orexin 1 receptors, the Ki amounted to 1760 nM.

Broadly, the inhibition is the relative decrease from the control value, in per cent. By Ki is commonly meant the dissociation constant of the complex between target and ligand, obtained from inhibition or displacement.
